{"source": "patent US5349127A", "about": "“Expression of herbicide metabolizing cytochromes P450” (priority 1992, dated 1994)", "key": {"S. lividans C37": {"test_system": "S. lividans C37", "assay": "Metabolism of 10001 in growing culture, HPLC of supernatant (Example 4)", "assay_type": "in vitro ADME, Streptomyces lividans", "conditions": "0.12 mg/ml 10001 in culture", "method": "Herbicides and their metabolites are measured by HPLC as described by Romesser et al., BBRC 140: 650-659 (1986), herein incorporated by reference, except that 0.1% H3 PO4 is used in both solvents. Chromatographic identity and quantitation of the herbicides and their resulting metabolites is determined by comparing them chromatographically with authentic standard compounds. Identity of the resulting metabolites is also confirmed by UV spectroscopy.\nSeparate cultures (50 ml) inoculated with S. lividans C37, S. lividans transformed with pCAO400 or S. lividans transformed with pCAO401 in sporulation broth containing 0.12 mg/ml of 10001 were grown with shaking at 30° C. Aliquots (1.5 ml) of each culture were removed at 24, 32, 48 and 56 hours after inoculation and the supernatant of each aliquot was analyzed by HPLC for its concentration of 10001 and its metabolites 10002 or 10003."}, "S. griseus PH3832": {"test_system": "S. griseus PH3832", "assay": "Metabolism of 10001 by strains transformed with pPAT108 (Example 14)", "assay_type": "in vitro ADME, Streptomyces griseus", "conditions": "substrate 10001 120 ug/ml", "method": "S. griseolus PH2003, S. griseus PH4001, S. ambofaciens PH4002, and S. lividans JI1326 were transformed with the plasmid pPAT108. The transformed S. griseolus strain, PH3826, was cultured for 24 hours in 150 mls of sporulation broth with 5 ug/ml thiostrepton. The transformed S. griseus strain, PH3832, and the transformed S. ambofaciens strain, PH3834, were cultured for 24 hours in 150 mls of trypticase soy broth with 5 ug/ml thiostrepton. The transformed S. lividans strain, PH3822, was similarly cultured in 150 mls of YEME broth with 5 ug/ml thiostrepton. Three hours before harvesting the cells, 50 mls of fresh medium of the same type with 5 ug/ml thiostrepton was added to each culture. The cells from each of the cultures were harvested by centrifugation, washed twice with 50 mMMOPS, pH7.2 and resuspended in five cell volumes of MOPS containing 0.2% glucose and 120 ug/ml of the sulfonylurea 10001. The cell suspensions were incubated at 30° C. with shaking and aliquots were removed at 0.5, 1, 2 and 4 hours. The supernatant of each aliquot was analyzed by HPLC and the concentration of the sulfonylurea compound 10001 and its metabolites 10002 and 10003 were determined."}, "[1]": {"test_system": "leaves of transformed tobacco", "assay": "Metabolism of 10001 in excised tobacco leaves (Example 20)", "assay_type": "in vitro ADME, Nicotiana tabacum", "conditions": "plants transformed with pSSU-SU111 and pCab-SU131, 21 hours", "method": "Plants were grown from tobacco seed produced by self-pollinated transformed plants in Metro-Mix® 350 under 16 hour light (light intensity of 400 μEinsteins per second per square meter at pot level, 22° C. and 80% relative humidity) followed by 8 hours of dark (18° C. and 70 to 80% relative humidity) and watered three times daily with half strength Hoagland's solution. The presence of the cytochrome P450 protein in individual plants was confirmed by Western blot analysis before testing for sulfonylurea metabolism.\nDuring growth, the tobacco plants produced leaves attached to the main stalk, none of which were of the same age or size. […]\nIndividual leaves were extracted with 30 ml acetone/water (80%/20% by volume) for 1 minute in a Sorvall® Omni-Mixer. […] 10015 and its metabolites were detected at 254 nm while ^14 C-10001 and its metabolites were detected with a Radiomatic Flo-One® detector. A diode array detector was used in separate experiments to obtain the absorbance spectra of the 10015 metabolite and an 10014 standard in the HPLC analysis of several extracts (HPLC method is described in Romesser et al., Biochem. Biophys. Res. Comm., 140:650-659 (1986)). Comparison of the metabolite absorbance spectrum with that of the 10014 confirmed the metabolite's identity. […]"}}}
{"smiles": "COc1cc(Cl)nc(NC(=O)NS(=O)(=O)c2ccccc2C(=O)O)n1", "note": "[compound 10003, N-[(4-chloro-6-methoxy-pyrimidin-2-yol)aminocarbonyl]-2-carboxybenzenesulfonamide]", "values": [{"measurement": "concentration in supernatant", "setting": "S. lividans C37; 0 h", "value": 0, "unit": "µM"}, {"measurement": "concentration in supernatant", "setting": "S. lividans C37; 24 h", "value": 0, "unit": "µM"}, {"measurement": "concentration in supernatant", "setting": "S. lividans C37; 32 h", "value": 0, "unit": "µM"}, {"measurement": "concentration in supernatant", "setting": "S. lividans C37; 48 h", "value": 3, "unit": "µM"}, {"measurement": "concentration in supernatant", "setting": "S. lividans C37; 56 h", "value": 3, "unit": "µM"}, {"measurement": "concentration in supernatant", "setting": "S. griseus PH3832; 0.5 h", "value": 9, "unit": "µM"}, {"measurement": "concentration in supernatant", "setting": "S. griseus PH3832; 1.0 h", "value": 26, "unit": "µM"}, {"measurement": "concentration in supernatant", "setting": "S. griseus PH3832; 2.0 h", "value": 46, "unit": "µM"}, {"measurement": "concentration in supernatant", "setting": "S. griseus PH3832; 4.0 h", "value": 80, "unit": "µM"}]}
{"smiles": "CCOC(=O)c1ccccc1S(=O)(=O)NC(=O)Nc1nc(O)cc(Cl)n1", "note": "[compound 10002, N-[(4-chloro-6-hydroxy-pyrimidin-2-yl)aminocarbonyl]-2-ethoxycarbonylbenzenesulfonamide]", "values": [{"measurement": "metabolite production versus leaf tissue of pAGS112 plants", "setting": "[1]; substrate 10001", "value": "more 10002 was produced"}]}
{"smiles": "CCOC(=O)c1ccccc1S(=O)(=O)NC(=O)Nc1nc(Cl)cc(OC)n1", "note": "[compound 10001, N-[(4-chloro-6-methoxy-pyrimidin-2-yl)aminocarbonyl]-2-ethoxycarbonylbenzenesulfonamide]", "values": [{"measurement": "concentration in supernatant", "setting": "S. lividans C37; 0 h", "value": 325, "unit": "µM"}, {"measurement": "concentration in supernatant", "setting": "S. lividans C37; 24 h", "value": 320, "unit": "µM"}, {"measurement": "concentration in supernatant", "setting": "S. lividans C37; 32 h", "value": 295, "unit": "µM"}, {"measurement": "concentration in supernatant", "setting": "S. lividans C37; 48 h", "value": 281, "unit": "µM"}, {"measurement": "concentration in supernatant", "setting": "S. lividans C37; 56 h", "value": 280, "unit": "µM"}, {"measurement": "concentration in supernatant", "setting": "S. griseus PH3832; 0.5 h", "value": 281, "unit": "µM"}, {"measurement": "concentration in supernatant", "setting": "S. griseus PH3832; 1.0 h", "value": 238, "unit": "µM"}, {"measurement": "concentration in supernatant", "setting": "S. griseus PH3832; 2.0 h", "value": 177, "unit": "µM"}, {"measurement": "concentration in supernatant", "setting": "S. griseus PH3832; 4.0 h", "value": 77, "unit": "µM"}, {"measurement": "extent of metabolism versus leaf tissue of pAGS112 plants", "setting": "[1]", "value": "metabolized to a significantly greater extent"}]}
